Reference: publication PMC8915830 (Proceedings of the National Academy of Sciences of the …, 2022)

Tests used:
hGHSR1aWT [1] = target: T1, hGHSR1aWT (Homo sapiens, UniProt Q92847); assay: iCa2+ in WT or Gαq/11 KO HEK293/S cells; assay type: cell-based; conditions: 10 μM ligand; versus WT cells
hGHSR1aWT [2] = target: T1, hGHSR1aWT; assay: Gαq/11-dependent intracellular Ca2+ mobilization; assay type: cell-based; conditions: for activity of the pure/resynthesized molecule: screening aliquots contained oxidated impurities

T1 sequence (Q92847 whole entry): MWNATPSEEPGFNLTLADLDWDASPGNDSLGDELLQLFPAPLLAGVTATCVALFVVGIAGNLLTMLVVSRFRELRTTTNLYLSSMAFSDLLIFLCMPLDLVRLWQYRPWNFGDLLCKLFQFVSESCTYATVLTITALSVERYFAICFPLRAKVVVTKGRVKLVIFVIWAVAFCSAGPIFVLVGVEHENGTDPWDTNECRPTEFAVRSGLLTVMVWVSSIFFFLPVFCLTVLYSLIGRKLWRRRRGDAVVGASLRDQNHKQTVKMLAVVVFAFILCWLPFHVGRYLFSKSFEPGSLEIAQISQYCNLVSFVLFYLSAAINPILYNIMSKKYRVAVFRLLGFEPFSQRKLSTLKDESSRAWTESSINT

Row | SMILES | activity of the pure/resynthesized molecule (hGHSR1aWT [2]) | further results
1 | C[C@@H](O)CNC(C)(C)CC(=O)N[C@@H]1CCc2ccccc2N(Cc2ccc(-c3ccccc3-c3nn[nH]n3)cc2)C1=O [L585] | – | ligand-induced iCa2+ in Gαq/11 KO cells (hGHSR1aWT [1]): abolished
2 | CCOc1ccc(C2c3c(oc4ccc(C)cc4c3=O)C(=O)N2CCCN(C)C)cc1OC (stereo not shown) [N1956] | could not be confirmed | –
3 | COc1ccc(C2c3c(oc4ccc(Cl)cc4c3=O)C(=O)N2CCCN(C)C)cc1OC (stereo not shown) [N6164] | could not be confirmed | –
4 | Cc1nc2ccc(Oc3ccc(F)cc3)cc2c(=O)n1C[C@H]1CCCN(C(C)C)C1 [YIL781] | – | inhibition of iCa2+ evoked by EC80 N8279, ghrelin or L585 (hGHSR1aWT [2]; 30 min antagonist pretreatment): competitively inhibited
